Laboratory results reported in PubChem BioAssay AID330 (DTP/NCI, 2004).
Values joined by “and” are separate entries in the source; they are usually repeats but may differ in a detail not shown here. Equal values may be shown once. Toxic doses and inconclusive results are not listed. Rule for the calls: active = survival T/C of 150% or more; inactive = T/C below 125% in these data.

System: P388 leukemia ip, CD2F1 mice, survival T/C
Experiment: NCI In Vivo Anticancer Drug Screen. Data for tumor model P388 Leukemia (intraperitoneal) in CD2F1 (CDF1) mice
Conditions: endpoint: median survival time, higher = longer survival
How it was run: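 Mice carrying the transplanted tumor received test compound or vehicle. Survival was recorded in each group, and the value is the treated-group measurement divided by that of the vehicle-treated control group.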

[1] = dose: 50.0 mg/kg/injection, schedule: Q01DX009 (ip), vehicle: saline with Tween-80
[2] = dose: 100.0 mg/kg/injection, schedule: Q01DX009 (ip), vehicle: saline with Tween-80
[3] = dose: 200.0 mg/kg/injection, schedule: Q01DX009 (ip), vehicle: saline with Tween-80
[4] = dose: 50.0 mg/kg/injection, schedule: Q01DX009 (ip), vehicle: suspension in saline
[5] = dose: 100.0 mg/kg/injection, schedule: Q01DX009 (ip), vehicle: suspension in saline
[6] = dose: 60.0 mg/kg/injection, schedule: Q01DX005 (ip), vehicle: saline with Tween-80
[7] = dose: 120.0 mg/kg/injection, schedule: Q01DX005 (ip), vehicle: saline with Tween-80
[8] = dose: 240.0 mg/kg/injection, schedule: Q01DX005 (ip), vehicle: saline with Tween-80
[9] = dose: 25.0 mg/kg/injection, schedule: Q01DX009 (ip), vehicle: suspension in saline
[10] = dose: 200.0 mg/kg/injection, schedule: Q01DX009 (ip), vehicle: suspension in saline

Measured: T/C

CCCc1c(C(=O)O)c(-c2cccc3ccccc23)c(CCC)c2c1-c1cccc3cccc-2c13
inactive: [1] 105 % of control | [2] 102 % of control | [3] 100 % of control

CC1[C@@H]2[C@@H](C=C3C4CCC5Cc6nc7c(nc6C[C@@]5(C)C4C[C@H](O)[C@]32CO)CC2CCC3C4=C[C@H]5O[C@@]6(O[C@@](C)(CO)C[C@@H]6O)C(C)[C@@]5(O)[C@]4(C)[C@@H](O)CC3[C@]2(C)C7)O[C@]12CCC(C)(C)O2 (some centres undefined)
inactive: dose: 12.5 micrograms/kg/injection, schedule: Q01DX009 (ip), vehicle: saline + alcohol 107 % of control | dose: 25.0 micrograms/kg/injection, schedule: Q01DX009 (ip), vehicle: saline + alcohol 116 % of control | dose: 50.0 micrograms/kg/injection, schedule: Q01DX009 (ip), vehicle: saline + alcohol 107 % of control | dose: 100.0 micrograms/kg/injection, schedule: Q01DX009 (ip), vehicle: saline + alcohol 100 % of control

C[N+](C)(C)/C=C/c1ccc([N+](=O)[O-])o1
inactive: [4] 100 % of control | [5] 96 % of control

O=C(O)C1CCN1C1CCCCC1 (centres undefined)
inactive: dose: 100.0 mg/kg/injection, schedule: Q01DX009 (ip), vehicle: saline sonified 90 % of control | dose: 200.0 mg/kg/injection, schedule: Q01DX009 (ip), vehicle: saline sonified 100 % of control | dose: 400.0 mg/kg/injection, schedule: Q01DX009 (ip), vehicle: saline sonified 104 % of control

CSc1nccc(=O)n1-c1ccccc1
inactive: dose: 100.0 mg/kg/injection, schedule: Q04DX003 (ip), vehicle: Klucel (hydroxypropylcellulose) (HPC) 91 % of control | dose: 200.0 mg/kg/injection, schedule: Q04DX003 (ip), vehicle: Klucel (hydroxypropylcellulose) (HPC) 92 % of control

Cc1ccc(S(=O)(=O)N/N=C2/C(=O)NC(=O)C(=O)C2c2nc3ccccc3s2)cc1 (centres undefined)
inactive: [6] 98 % of control | [7] 92 % of control | [8] 100 % of control

COC(=O)/C=C/NC(=O)c1ccccc1C(=O)OC
inactive: [9] 98 % of control | [4] 100 % of control | [5] 100 % of control | [10] 100 % of control

CC(=O)OC1CC2C(=[N+]=[N-])C(=O)C1(C)C2(C)C (centres undefined)
inactive: dose: 50.0 mg/kg/injection, schedule: Q01DX005 (ip), vehicle: saline with Tween-80 108 % of control | dose: 100.0 mg/kg/injection, schedule: Q01DX005 (ip), vehicle: saline with Tween-80 107 % of control | dose: 200.0 mg/kg/injection, schedule: Q01DX005 (ip), vehicle: saline with Tween-80 108 % of control

O=C(CCl)N1c2ccccc2Sc2c1ccc1ccccc21
inactive: dose: 3.12 mg/kg/injection, schedule: Q01DX009 (ip), vehicle: saline with Tween-80 103 % of control | dose: 6.25 mg/kg/injection, schedule: Q01DX009 (ip), vehicle: saline with Tween-80 104 % of control | dose: 6.25 mg/kg/injection, schedule: Q01DX009 (ip), vehicle: suspension in saline 100 % of control | dose: 12.5 mg/kg/injection, schedule: Q01DX009 (ip), vehicle: saline with Tween-80 120 % of control | dose: 12.5 mg/kg/injection, schedule: Q01DX009 (ip), vehicle: suspension in saline 102 % of control and 122 % of control | dose: 25.0 mg/kg/injection, schedule: Q01DX009 (ip), vehicle: saline with Tween-80 116 % of control | [9] 103 % of control and 118 % of control | [1] 116 % of control | [4] 103 % of control | [2] 110 % of control | [5] 102 % of control and 123 % of control | [10] 108 % of control

CNS(=O)(=O)Cc1ccccc1
inactive: dose: 50.0 mg/kg/injection, schedule: Q01DX009 (ip), vehicle: saline 107 % of control | dose: 100.0 mg/kg/injection, schedule: Q01DX009 (ip), vehicle: saline 107 % of control | dose: 200.0 mg/kg/injection, schedule: Q01DX009 (ip), vehicle: saline 100 % of control | dose: 400.0 mg/kg/injection, schedule: Q01DX009 (ip), vehicle: saline 108 % of control

CCc1ccc([O-])c(C=NCCCN(C)CCCN=Cc2cc(C)ccc2[O-])c1.[Co+3].[N-]=[N+]=[N-]
inactive: [6] 88 % of control | [7] 91 % of control | [8] 101 % of control

CC(C)(C)NC(=S)N/N=C/c1cc(Cl)cc(Cl)c1O
inactive: [1] 97 % of control | [3] 98 % of control

CC(C)(C)C1=CC2(c3ccccn3)C(Cl)C(=O)N2NC(c2ccccn2)=N1 (centres undefined)
inactive: dose: 25.0 mg/kg/injection, schedule: Q01DX009 (ip), vehicle: other 98 % of control | dose: 50.0 mg/kg/injection, schedule: Q01DX009 (ip), vehicle: other 101 % of control | dose: 100.0 mg/kg/injection, schedule: Q01DX009 (ip), vehicle: other 98 % of control | dose: 200.0 mg/kg/injection, schedule: Q01DX009 (ip), vehicle: other 93 % of control

S=c1[nH]nc(NC2CCCCC2)s1
inactive: [1] 90 % of control | [2] 90 % of control | dose: 100.0 mg/kg/injection, schedule: Q04DX003 (ip), vehicle: saline with Tween-80 91 % of control | [3] 90 % of control | dose: 200.0 mg/kg/injection, schedule: Q04DX003 (ip), vehicle: saline with Tween-80 91 % of control

CCCCCCCCCCCCCCCCCCOCC(O)CO (centres undefined)
inactive: dose: 25.0 mg/kg/injection, schedule: Q01DX009 (ip), vehicle: saline + alcohol 91 % of control | dose: 50.0 mg/kg/injection, schedule: Q01DX009 (ip), vehicle: saline + alcohol 92 % of control | dose: 100.0 mg/kg/injection, schedule: Q01DX009 (ip), vehicle: saline + alcohol 94 % of control | dose: 200.0 mg/kg/injection, schedule: Q01DX009 (ip), vehicle: saline + alcohol 100 % of control | dose: 400.0 mg/kg/injection, schedule: Q01DX009 (ip), vehicle: saline + alcohol 100 % of control

O=C(O)C1CCC(CNCC2C(=O)OC3CCC4C(O)CC(O)C4CC32)CC1 (centres undefined)
inactive: dose: 100.0 mg/kg/injection, schedule: Q04DX002 (ip), vehicle: saline 97 % of control | dose: 200.0 mg/kg/injection, schedule: Q04DX002 (ip), vehicle: saline 100 % of control | dose: 400.0 mg/kg/injection, schedule: Q04DX002 (ip), vehicle: saline 105 % of control

COC1OC2COC(c3ccccc3)OC2C(O)[CH]1[Hg][O]C(C)=O (centres undefined)
inactive: dose: 0.1 mg/kg/injection, schedule: Q01DX009 (ip), vehicle: distilled water + Tween-80 100 % of control | dose: 0.19 mg/kg/injection, schedule: Q01DX009 (ip), vehicle: distilled water + Tween-80 96 % of control | dose: 0.38 mg/kg/injection, schedule: Q01DX009 (ip), vehicle: distilled water + Tween-80 107 % of control | dose: 0.78 mg/kg/injection, schedule: Q01DX009 (ip), vehicle: distilled water + Tween-80 99 % of control | dose: 1.56 mg/kg/injection, schedule: Q01DX009 (ip), vehicle: distilled water + Tween-80 91 % of control | dose: 3.13 mg/kg/injection, schedule: Q01DX009 (ip), vehicle: distilled water + Tween-80 104 % of control | dose: 6.25 mg/kg/injection, schedule: Q01DX009 (ip), vehicle: distilled water + Tween-80 96 % of control | dose: 12.5 mg/kg/injection, schedule: Q01DX009 (ip), vehicle: distilled water + Tween-80 110 % of control

CS(=O)(=O)Nc1nc2ccccc2c(=O)o1
inactive: dose: 60.0 mg/kg/injection, schedule: Q01DX005 (ip), vehicle: Klucel (hydroxypropylcellulose) (HPC) 107 % of control | dose: 120.0 mg/kg/injection, schedule: Q01DX005 (ip), vehicle: Klucel (hydroxypropylcellulose) (HPC) 102 % of control | dose: 240.0 mg/kg/injection, schedule: Q01DX005 (ip), vehicle: Klucel (hydroxypropylcellulose) (HPC) 99 % of control

Cc1cc(=NCCCN(C)C)c2ccc3c(ccc4c(=NCCCN(C)C)cc(C)n(O)c43)c2n1O
inactive: dose: 6.25 mg/kg/injection, schedule: Q01DX009 (ip), vehicle: water 106 % of control and 111 % of control | dose: 12.5 mg/kg/injection, schedule: Q01DX009 (ip), vehicle: distilled water + alcohol 102 % of control | dose: 12.5 mg/kg/injection, schedule: Q01DX009 (ip), vehicle: water 100 % of control and 103 % of control and 109 % of control | dose: 25.0 mg/kg/injection, schedule: Q01DX009 (ip), vehicle: distilled water + alcohol 102 % of control | dose: 25.0 mg/kg/injection, schedule: Q01DX009 (ip), vehicle: water 108 % of control and 116 % of control | dose: 50.0 mg/kg/injection, schedule: Q01DX009 (ip), vehicle: distilled water + alcohol 105 % of control
